Reference: paper PMC10087458 (Chemical Biology & Drug Design, 2022)
≈ marks a conversion by molar mass, not a printed value. Entries after “also recorded” stand apart in the source; their conditions may differ. Like-named read-outs stand apart in the source and are kept apart here.

Experiments:
[1] = system: Mycobacterium tuberculosis in a persistent state; set-up: method as in Barrow et al., [2003]; details: ref Barrow et al., [2003]; cited from earlier work
[2] = Equilibrium solubility, modified shake-flask method with HPLC quantification; assay type: physicochemical; details: shake-flask 24 h, HPLC 230 nm
Experimental: The equilibrium solubility of ADN‐PEG‐conjugates was determined using a modified version of the shake‐flask method (Plöger et al., [2018]). An excess of the ADN‐PEG‐conjugate was added to either phosphate buffer solution (PBS buffer) or deuterium‐depleted water (DDW) at a pH value of 6.8. The resulting suspension was shaken at 37°C until a (thermodynamic) equilibrium was reached between saturated solution and undissolved solid. Solubility quantification of the samples was achieved using high‐pressure liquid chromatography (HPLC) analysis.
An excess amount of the PEG-ADN conjugates was added into a 20 mL glass vial containing either phosphate buffer solution or DDW. The samples were placed into a shaking water bath at 150 rpm at 37ᵒC for 24h. The supernatant was withdrawn from the suspension using a micro centaur MSB010.CX2.5 centrifuge (MSE Ltd., London, UK) at 1.3 × 10,000 rpm for 1 min.

[3] = system: adenosine receptors in RAW264.7 cells; assay: cAMP accumulation in RAW264.7 macrophages (cAMP ELISA); assay type: cell-based, murine; details: for increase in cAMP compared with forskolin: 1 μM, 10 min incubation, PDE inhibitor pre-treatment, positive control forskolin 1 μM
[4] = system: murine macrophages RAW 264.7; assay: Resazurin cytotoxicity assay on RAW 264.7 macrophages; assay type: cell-based; details: Mus musculus
[5] = system: Mycobacterium aurum (ATCC 23366); assay: HT-SPOTi anti-mycobacterial assay, M. aurum; assay type: cell-based; details: Mycolicibacterium aurum
[6] = system: Mycobacterium bovis BCG (ATCC35734); assay: microbe, parasite or virus in culture; assay type: cell-based; details: Mycobacterium tuberculosis variant bovis BCG, read-out: MIC90 M. bovis BCG, HT-SPOTi; lowest concentration inhibiting 90% of the bacteria
[7] = system: Mycobacterium aurum (ATCC 23366); set-up: method as in Ferguson et al., [2020]; details: ref Ferguson et al., [2020]; cited from earlier work
[8] = system: Mycobacterium bovis BCG (ATCC35734); details: ref Ferguson et al., [2020]; cited from earlier work
[9] = aqueous buffer, thermodynamic from solid, phosphate buffer solution pH 6.8, 37°C, read-out: Solubility (mean ± SD) PBS
[10] = pH 7, thermodynamic from solid, deuterium-depleted water (DDW), 37°C, read-out: Solubility (mean ± SD) DDW
[11] = RAW264.7, 50% inhibition of cell proliferation, resazurin micro dilution method, RAW 264.7 murine macrophages, read-out: GIC50 RAW 264.7
[12] = ATCC23366, HT-SPOTi, lowest concentration inhibiting 90% of the bacteria, read-out: MIC90 M. aurum

Row | Compound | increase in cAMP compared with forskolin [3] [%] | IC50 [4, 11] [µg/mL] | MIC90 [5, 12] [µg/mL] | MIC90 [6] [µg/mL] | other results
1 | Cc1nc(N)c2ncn([C@@H]3O[C@H](CO)[C@@H](O)[C@H]3O)c2n1 [2‐methyl adenosine] | – | – | – | – | growth of Mycobacterium tuberculosis in a persistent state (in words) [1]: inhibited the growth
2 | CS(=O)(=O)OCCOCCOCCOCCOCC#Cc1nc(N)c2ncn([C@@H]3O[C@H](CO)[C@@H](O)[C@H]3O)c2n1 [10b] | 42 | 250 (≈ 434 µM) | 250 (≈ 434 µM) | 250 (≈ 434 µM) | solubility at 24 h [2, 9]: 1220 ± 260 µg/mL (≈ 2120 µM); solubility at 24 h [2, 10]: 1330 ± 320 µg/mL (≈ 2310 µM); cAMP accumulation in RAW264.7 cells (in words) [3]: significant increase; also recorded: considerable increase
3 | CS(=O)(=O)OCCOCCOCCOCCOCCOCC#Cc1nc(N)c2ncn([C@@H]3O[C@H](CO)[C@@H](O)[C@H]3O)c2n1 [10c] | – | 250 (≈ 403 µM) | 250 (≈ 403 µM) | 250 (≈ 403 µM) | –
4 | CC1(C)O[C@@H]2[C@H](O1)[C@@H](CO)O[C@H]2n1cnc2c(N)nc(C#CCOCCOCCOCCOCCOS(C)(=O)=O)nc21 [11b] | 46 | 62.5 (≈ 102 µM) | 500 (≈ 812 µM) | 500 (≈ 812 µM) | solubility at 24 h [2, 9]: 1180 ± 190 µg/mL (≈ 1920 µM); solubility at 24 h [2, 10]: 1160 ± 640 µg/mL (≈ 1880 µM); cAMP accumulation in RAW264.7 cells (in words) [3]: significant increase; also recorded: considerable increase
5 | CC1(C)O[C@@H]2[C@H](O1)[C@@H](CO)O[C@H]2n1cnc2c(N)nc(C#CCOCCOCCOCCOCCOCCOS(C)(=O)=O)nc21 [11c] | – | 62.5 (≈ 94.7 µM) | 125 (≈ 189 µM) | 250 (≈ 379 µM) | –
6 | CC1(C)O[C@@H]2[C@H](O1)[C@@H](COS(N)(=O)=O)O[C@H]2n1cnc2c(N)nc(C#CCOCCOCCOCCOCCOCCOS(C)(=O)=O)nc21 [12c] | – | 31.2 (≈ 42.2 µM) | 62.5 (≈ 84.6 µM) | 500 (≈ 677 µM) | –
7 | Nc1ncnc2c1ncn2[C@@H]1O[C@H](CO)[C@@H](O)[C@H]1O [Adenosine, adenosine, reference compound] | 48 | – | – | – | –
8 | NNC(=O)c1ccncc1 [Isoniazid, isoniazid, reference compound] | – | 500 (≈ 3650 µM) | 7.81 (≈ 56.9 µM) | 0.49 (≈ 3.57 µM) | –
9 | Nc1nc(I)nc2c1ncn2[C@@H]1O[C@H](CO)[C@@H](O)[C@H]1O [compound 9, 2‐iodoadenosine, reference compound] | – | – | – | 15.6 (≈ 39.7 µM) | IC50 ([4]; RAW264.7, read-out: GIC50 RAW 264.7): 250 µg/mL (≈ 636 µM); MIC90 ([5]; ATCC23366, read-out: MIC90 M. aurum): 125 µg/mL (≈ 318 µM); bactericidal activity against M. aurum (in words) [7]: not; bactericidal activity against M. bovis (in words) [8]: exhibited bactericidal activity
